# Measured values as given in patent US20230159484A1, “FLUORESCENT DYES HAVING HIGH STOKES SHIFT, ON THE BASIS OF BRIDGED BENZOPYRYLIUM SALTS” (DYOMICS GmbH, priority 2020, published 2023).
# Legend:
# Assay type in all cases: physicochemical
# [1] = UV-Vis absorption (absorption maximum, extinction coefficient)
# Description: (§1) Depending on the basic structure and substitution, the absorption maxima lie in the entire range of visible light, with a focus at 500-530 nm. The compounds show a high Stokes shift in the range of 80 nm. The absorption is measured, for example, at 25° C. in aqueous or ethanolic solutions with an extinction of 1.0 using a Specord 205 from Analytik Jena, wherein the aqueous solutions are preferably phosphate-buffered salt solutions (PBS buffer; approx. 100 mM sodium chloride and 100 mM total phosphate) and have a pH of 7.5. For example, the emission is measured at 25° C. in dilute aqueous or ethanolic solutions with an extinction of 0.1 using a FP-6600 spectrofluorometer from Jasco, wherein the dilute aqueous solutions are preferably phosphate-buffered salt solutions (PBS buffer; about 100 mM sodium chloride and 100 mM total phosphate) and have a pH of 7.5.
# [2] = Fluorescence quantum yield
# Description: Preferably, the fluorescence quantum yield of a compound according to the invention is 0.1 to 0.95, more preferably 0.5 to 0.9. Fluorescence quantum yields are preferably determined at 25° C. in dilute aqueous or ethanolic solutions with an extinction of 0.1 using a Hamamatsu Absolute Photoluminescence Quantum Yield Measurement System C-9920, wherein the dilute aqueous solutions are preferably phosphate-buffered salt solutions (PBS buffer; about 100 mM sodium chloride and 100 mM total phosphate) and have a pH of 7.5. The compounds thus complement the already commercially available dyes with high Stokes Shift or represent better fluorescent alternatives.
# [3] = Fluorescence emission (emission maximum)
# Description: as §1
# [4] = Fluorescence emission (emission maximum); remark: listed apart in the source
Structure (SMILES),ε ([1]; UV-Vis in PBS),λmax ([1]; UV-Vis in PBS),ε ([1]; UV-Vis in ethanol),λmax ([1]; UV-Vis in ethanol),QY ([2]; in PBS),QY ([2]; in ethanol),λem ([3]; in PBS),λem ([3]; in ethanol),λmax ([1]; UV-Vis in buffer pH 9),λem ([4]; in buffer pH 9),ε ([1]; UV-Vis in buffer pH 5),λmax ([1]; UV-Vis in buffer pH 5),λem ([4]; in buffer pH 5)
"CCN(CC)c1ccc2cc3c([o+]c2c1)C=C(NCCCCCC(=O)O)CC3(C)C.[Cl-] [Compound 3, 6-[[6-(diethylamino)-1,1-dimethyl-2H-xanthene-10-ium-3-yl]amino]hexanoic Acid Chloride Salt]","39,200 l/mol*cm",505 nm,"32,500 l/mol*cm",510 nm,0.58,0.82,570 nm,575 nm,–,–,–,–,–
"CC1(C)CC(NCCCS(=O)(=O)[O-])=Cc2[o+]c3cc(N(CCCCCC(=O)O)CCCS(=O)(=O)[O-])ccc3cc21.[Na+] [Compound 5, 3-[[6-[5-carboxypentyl(3-sulfonatopropyl)amino]-1,1-dimethyl-2H-xanthene-10-ium-3-yl]amino]propane-1-sulfonate Sodium Salt]","45,000 l/mol*cm",505 nm,"49,800 l/mol*cm",512 nm,0.72,0.87,572 nm,570 nm,–,–,–,–,–
"CCN(CCCCCC(=O)O)c1ccc2cc3c([o+]c2c1)C=C(NCCCS(=O)(=O)[O-])CC3(C)C [Compound 8, 3-[[6-[5-Carboxypentyl(ethyl)amino]-1,1-dimethyl-2H-xanthene-10-ium-3-yl]amino]propane-1-sulfonate]","38,500 l/mol*cm",509 nm,"41,600 l/mol*cm",511 nm,0.58,0.84,578 nm,571 nm,–,–,–,–,–
"CN(C1=Cc2[o+]c3cc(N(CCCCCC(=O)O)CCCS(=O)(=O)[O-])ccc3cc2C(C)(C)C1)c1ccccc1 [Compound 9, 3-[5-carboxypentyl-[8,8-dimethyl-6-(N-methylanilino)-7H-xanthene-10-ium-3-yl]amino]propane-1-sulfonate]","39,000 l/mol*cm",523 nm,"41,000 l/mol*cm",531 nm,"0,24",0.47,600 nm,601 nm,–,–,–,–,–
"CN(C1=Cc2[o+]c3cc(N(CCCCCC(=O)O)CCCS(=O)(=O)[O-])ccc3cc2C(C)(C)C1)c1ccc(S(=O)(=O)[O-])cc1.[Na+] [Compound 10, 4-[[6-[5-carboxypentyl(3-sulfonatopropyl)amino]-1,1-dimethyl-2H-xanthene-10-ium-3-yl]-methyl-amino]benzenesulfonate sodium Salt]","44,000 l/mol*cm",527 nm,"48,000 l/mol*cm",533 nm,0.35,0.57,612 nm,609 nm,–,–,–,–,–
"CCN(CCCCCC(=O)O)c1ccc2cc3c([o+]c2c1)C=C(N(C)c1ccccc1)CC3(C)C.[Cl-] [Compound 11, 6-[[8,8-dimethyl-6-(N-methylanilino)-7H-xanthene-10-ium-3-yl]-ethyl-amino]hexanoic Acid Chloride Salt]","39,000 l/mol*cm",526 nm,"44,000 l/mol*cm",531 nm,0.27,0.42,606 nm,601 nm,–,–,–,–,–
"CCN(CCCCCC(=O)O)c1ccc2cc3c([o+]c2c1)C=C(N(C)c1ccc(S(=O)(=O)[O-])cc1)CC3(C)C [Compound 12, 4-[[6-[5-carboxypentyl(ethyl)amino]-1,1-dimethyl-2H-xanthene-10-ium-3-yl]-methyl-amino]benzenesulfonate]","45,000 l/mol*cm",532 nm,"50,000 l/mol*cm",533 nm,0.26,0.51,619 nm,610 nm,–,–,–,–,–
"CCN(CCCCCC(=O)O)c1ccc2cc3c([o+]c2c1)C(S(=O)(=O)[O-])=C(Nc1ccc(S(=O)(=O)[O-])cc1)CC3(C)C.[Na+] [Compound 14, 6-[5-carboxypentyl(ethyl)amino]-1,1-dimethyl-3-(4-sulfonatoanilino)-2H-xanthene-10-ium-4-sulfonate Sodium Salt]","40,100 l/mol*cm",545 nm,"45,300 l/mol*cm",542 nm,0.11,0.61,625 nm,616 nm,–,–,–,–,–
"CC1=CC(C)(C)N(CCCS(=O)(=O)[O-])c2cc3[o+]c4c(cc3cc21)C(C)(C)CC(N(C)CCCC(=O)O)=C4 [Compound 23, 3-[9-[3-carboxypropyl(methyl)amino]-2,2,4,7,7-pentamethyl-8H-chromeno[3,2-g]quinolin-11-ium-1-yl]propane-1-sulfonate]","45,400 l/mol*cm",527 nm,"55,000 l/mol*cm",542 nm,0.58,0.88,600 nm,600 nm,–,–,–,–,–
"CCN(CCCCCC(=O)O)c1ccc2c(c1)OC1=C(S(=O)(=O)[O-])C(=O)CC(C)(C)C1=C2.[Na+] [Compound 36, 6-[5-carboxypentyl(ethyl)amino]-1,1-dimethyl-3-oxo-2H-xanthene-4-sulfonate Sodium Salt]","30,100 l/mol*cm",482 nm,"25,000 l/mol*cm",446 nm,0.66,0.90,565 nm,542 nm,–,–,–,–,–
"CC1(C)CC(=O)C(S(=O)(=O)[O-])=C2Oc3cc(N(CCCCCC(=O)O)CCCS(=O)(=O)[O-])ccc3C=C21.[Na+].[Na+] [Compound 38, 6-[5-carboxypentyl(3-sulfonatopropyl)amino]-1,1-dimethyl-3-oxo-2H-xanthene-4-sulfonate di-sodium SALT]","28,000 l/mol*cm",479 nm,"31,000 l/mol*cm",463 nm,0.78,0.91,557 nm,544 nm,–,–,–,–,–
"CC1(C)CC(=O)C(S(=O)(=O)[O-])=C2Oc3cc(O)ccc3C=C21.[Na+] [Compound 39, 6-hydroxy-1,1-dimethyl-3-oxo-2H-xanthene-4-sulfonate Sodium Salt]",–,409 nm,–,–,–,–,485 nm,–,462 nm,536 nm,–,–,–
"CCN(CCCCCC(=O)O)c1ccc2c(c1)OC1=C(c3ccncc3)C(=O)CC(C)(C)C1=C2 [Compound 44, 6-[[8,8-dimethyl-6-oxo-5-(4-pyridyl)-7H-xanthene-3-yl]-ethyl-amino]hexanoic Acid]","13,000 l/mol*cm",472 nm,–,–,–,–,573 nm,–,–,–,13300 L/mol/cm,523 nm,600 nm
"CC1(C)CC(=O)C(c2ccncc2)=C2Oc3cc(N(CCCCCC(=O)O)CCCS(=O)(=O)[O-])ccc3C=C21.[Na+] [Compound 45, 3-[5-carboxypentyl-[8,8-dimethyl-6-oxo-5-(4-pyridyl)-7H-xanthene-3-yl]amino]propane-1-sulfonate Sodium Salt]",15000 L/mol/cm,470 nm,–,–,–,–,570 nm,–,–,–,15400 L/mol/cm,524 nm,594 nm
"CCN(CCCCCC(=O)O)c1ccc2c(c1)OC1=Cc3[o+]c4cc(OC)ccc4cc3C(C)(C)C1=C2.[Cl-] [Compound 48, 6-[ethyl-(3-methoxy-13,13-dimethyl-chromeno[3,2-b]xanthene-5-ium-9-yl)amino]hexanoic Acid Chloride Salt]",–,–,"53,000 l/mol*cm",654 nm,–,–,–,712 nm,–,–,–,–,–
